Source: ChEMBL document CHEMBL1201862, “PubChem BioAssay data set” (2004)
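Protocol summary: plate cells (96-well), add compound at 5 concentrations, incubate 48 h, interpolate endpoints linearly. At the GI50, growth is halved.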 Active and inactive are the calls of the source. Rule as the data show it: active = GI50 up to about 1.1 µM and inactive = higher. Where a SMILES comes first, the peptide text is derived from it. The star is where a group is joined. ONb = O=[N+]([O-])c1ccc(CO*)cc1; Boc = CC(C)(C)OC(=O)*

Columns and labels:
Assay in all cases: inhibition of tumour cell growth, NCI panel, 48 h
[1] = system: SF-295
[2] = system: RXF 393
[3] = system: UACC-257
[4] = system: MDA-MB-231
[5] = system: U-251
[6] = system: OVCAR-3
[7] = system: SNB-75
[8] = system: PC-3
[9] = system: NCI-H522
[10] = system: K562
[11] = system: Malme-3M
[12] = system: MCF7
[13] = system: EKVX
[14] = system: HT-29
[15] = system: NCI-H226
[16] = system: RPMI-8226
[17] = system: HL-60
[18] = system: A549
[19] = system: Hs-578T

SMILES	GI50 [1]	GI50 [2]	GI50 [3]	GI50 [4]	GI50 [5]	GI50 [6]	GI50 [7]	GI50 [8]	GI50 [9]	GI50 [10]	GI50 [11]	GI50 [12]	GI50 [13]	GI50 [14]	GI50 [15]	GI50 [16]	GI50 [17]	GI50 [18]	GI50 [19]
Nc1ccc(C(=O)NN2C(=O)[C@H](Cl)C2c2ccc(Cl)cc2)cc1 (some centres not stated)	4.55 µM (inactive)	2.72 µM (inactive)	1.74 µM (inactive)	1.81 µM (inactive)	1.22 µM (inactive)	0.57 µM (active)	0.223 µM (active)	1.6 µM (inactive)	2.03 µM (inactive)	1.82 µM (inactive)	2.21 µM (inactive)	1.17 µM (inactive)	3.55 µM (inactive)	0.156 µM (active)	0.714 µM (active)	1.21 µM (inactive)	1.91 µM (inactive)	2.45 µM (inactive)	–
COC(=O)c1ccccc1CC(Cc1ccc2c(c1)CCC2)C(=O)OC (configuration not stated)	> 100 µM (inactive)	> 100 µM (inactive)	34.6 µM (inactive)	> 100 µM (inactive)	> 100 µM (inactive)	70 µM (inactive)	98.4 µM (inactive)	93.3 µM (inactive)	66.1 µM (inactive)	95.1 µM (inactive)	33.3 µM (inactive)	> 100 µM (inactive)	> 100 µM (inactive)	50.6 µM (inactive)	57.5 µM (inactive)	> 100 µM (inactive)	45.9 µM (inactive)	> 100 µM (inactive)	> 100 µM (inactive)
O=c1ccn2n1CCCCC2	> 100 µM (inactive)	> 100 µM (inactive)	> 100 µM (inactive)	> 100 µM (inactive)	> 100 µM (inactive)	> 100 µM (inactive)	–	> 100 µM (inactive)	> 100 µM (inactive)	> 100 µM (inactive)	> 100 µM (inactive)	–	> 100 µM (inactive)	> 100 µM (inactive)	> 100 µM (inactive)	> 100 µM (inactive)	> 100 µM (inactive)	> 100 µM (inactive)	> 100 µM (inactive)
CC(C)CCC(=O)c1ccoc1 [PERILLAKETONE]	> 100 µM (inactive)	> 100 µM (inactive)	> 100 µM (inactive)	> 100 µM (inactive)	> 100 µM (inactive)	> 100 µM (inactive)	> 100 µM (inactive)	> 100 µM (inactive)	–	> 100 µM (inactive)	> 100 µM (inactive)	> 100 µM (inactive)	> 100 µM (inactive)	> 100 µM (inactive)	> 100 µM (inactive)	> 100 µM (inactive)	> 100 µM (inactive)	> 100 µM (inactive)	> 100 µM (inactive)
COc1cccc([C@@H]2CC(=O)c3cc4c(cc3N2)OCO4)c1	> 100 µM (inactive)	> 100 µM (inactive)	> 100 µM (inactive)	> 100 µM (inactive)	> 100 µM (inactive)	> 100 µM (inactive)	86.3 µM (inactive)	> 100 µM (inactive)	–	98.4 µM (inactive)	–	> 100 µM (inactive)	> 100 µM (inactive)	–	> 100 µM (inactive)	76.4 µM (inactive)	–	> 100 µM (inactive)	64.9 µM (inactive)
O=[N+]([O-])c1ccc2nc(Nc3ccccc3)c(Nc3ccccc3)nc2c1	1.14 µM (inactive)	2.57 µM (inactive)	2.15 µM (inactive)	1.36 µM (inactive)	0.512 µM (active)	–	2 µM (inactive)	0.847 µM (active)	0.369 µM (active)	2.04 µM (inactive)	1.84 µM (inactive)	–	1.82 µM (inactive)	0.463 µM (active)	2.4 µM (inactive)	2.61 µM (inactive)	9.31 µM (inactive)	0.349 µM (active)	2.65 µM (inactive)
O=[N+]([O-])c1ccc(S(=O)(=O)n2c3ccc(Br)cc3c3nc4ccccc4nc32)cc1	> 100 µM (inactive)	> 100 µM (inactive)	> 100 µM (inactive)	> 100 µM (inactive)	> 100 µM (inactive)	> 100 µM (inactive)	77.6 µM (inactive)	> 100 µM (inactive)	> 100 µM (inactive)	70.8 µM (inactive)	–	–	–	> 100 µM (inactive)	24 µM (inactive)	> 100 µM (inactive)	–	> 100 µM (inactive)	53.6 µM (inactive)
CC1[C@@H](OCc2ccccc2)COC(=O)N1Cc1ccccc1 (some centres not stated)	46.2 µM (inactive)	–	68.4 µM (inactive)	> 100 µM (inactive)	> 100 µM (inactive)	> 100 µM (inactive)	> 100 µM (inactive)	93.8 µM (inactive)	–	60 µM (inactive)	> 100 µM (inactive)	81.8 µM (inactive)	78.9 µM (inactive)	> 100 µM (inactive)	> 100 µM (inactive)	52.2 µM (inactive)	–	85.9 µM (inactive)	> 100 µM (inactive)
CC(C)CC(NC(=O)OC(C)(C)C)C(=O)NC(CCC(=O)OCc1ccc([N+](=O)[O-])cc1)C(=O)OCc1ccc([N+](=O)[O-])cc1 (stereo not drawn) (Boc-Leu-Glu(ONb)-ONb; configuration not given here)	43.4 µM (inactive)	–	43.8 µM (inactive)	> 100 µM (inactive)	27.6 µM (inactive)	26.6 µM (inactive)	16.6 µM (inactive)	27.9 µM (inactive)	4.57 µM (inactive)	9.44 µM (inactive)	> 100 µM (inactive)	> 10 µM (inactive)	49.2 µM (inactive)	21.2 µM (inactive)	–	22.4 µM (inactive)	4.05 µM (inactive)	–	–
CSc1ncnc2c1ncn2CCC(=O)O	> 100 µM (inactive)	> 100 µM (inactive)	> 100 µM (inactive)	> 100 µM (inactive)	–	> 100 µM (inactive)	> 100 µM (inactive)	> 100 µM (inactive)	> 100 µM (inactive)	> 100 µM (inactive)	> 100 µM (inactive)	> 100 µM (inactive)	> 100 µM (inactive)	> 100 µM (inactive)	> 100 µM (inactive)	> 100 µM (inactive)	> 100 µM (inactive)	> 100 µM (inactive)	–
COc1cc(/C=C2\[C@H]3c4c(c(OC)c(C)c(OC)c4OC)C[C@@H](C(=O)N2Cc2ccccc2)N3C(=O)OCC(C)C)c(OC)c(C)c1OC	> 100 µM (inactive)	> 100 µM (inactive)	16.6 µM (inactive)	–	> 85.5 µM (inactive)	> 41.4 µM (inactive)	> 83.2 µM (inactive)	–	19.4 µM (inactive)	42.2 µM (inactive)	> 100 µM (inactive)	–	> 100 µM (inactive)	> 84.5 µM (inactive)	1.16 µM (inactive)	13.6 µM (inactive)	7.46 µM (inactive)	> 71.1 µM (inactive)	–
C=CCNC1=C(C(=O)OCC)C(=O)CO1	> 100 µM (inactive)	> 100 µM (inactive)	> 100 µM (inactive)	–	> 100 µM (inactive)	> 100 µM (inactive)	> 100 µM (inactive)	–	> 100 µM (inactive)	> 100 µM (inactive)	> 100 µM (inactive)	–	> 100 µM (inactive)	> 100 µM (inactive)	> 100 µM (inactive)	> 100 µM (inactive)	> 100 µM (inactive)	> 100 µM (inactive)	–
